The subject of one assay is HEK293. The assay can be described thus: Cytotoxicity against HEK293 cells assessed as inhibition of cell proliferation measured after 48 hrs by MTT assay. Type of assay: cell-based. To be noted: Homo sapiens, HEK293, 48 h.
The test system of a further assay is HT-29. The assay can be described thus: Antiproliferative activity against human HT-29 cells assessed as inhibition of cell proliferation measured after 48 hrs by MTT assay. Type of assay: functional, cell-based. Particulars: HT-29, 48 h.
For assay [1], the system named is HeLa. The assay can be described thus: Antiproliferative activity against human HeLa cells assessed as inhibition of cell proliferation measured after 48 hrs by MTT assay. Type of assay: functional, cell-based.
For another assay, the system named is MDA-MB-231. The experiment in a line: Antiproliferative activity against human MDA-MB-231 cells assessed as inhibition of cell proliferation measured after 48 hrs by MTT assay. To be noted: MDA-MB-231, 48 h. Format: functional, cell-based.
A further assay deals with HCT-116. The experiment in a line: Antiproliferative activity against human HCT-116 cells assessed as inhibition of cell proliferation measured after 48 hrs by MTT assay. Type of assay: functional, cell-based. Particulars: HCT-116, 48 h.
Assay [2] deals with HeLa. The experiment in a line: Cell cycle arrest in human HeLa cells assessed as accumulation at G2/M phase at 12 uM measured after 24 hrs by flow cytometry analysis (reference value: 15.22 %). Format: functional.
In assay [3] the test system is HeLa. The assay can be described thus: Cell cycle arrest in human HeLa cells assessed as accumulation at G2/M phase measured after 24 hrs by flow cytometry analysis. Format: functional, cell-based. Particulars: dose 3-12 µM.
In assay [4] the test system is HeLa. The experiment in a line: Cell cycle arrest in human HeLa cells assessed as accumulation at S phase at 12 uM measured after 24 hrs by flow cytometry analysis (reference value: 17.44 %). Format: functional.
The test system of assay [5] is HeLa. The assay can be described thus: Cell cycle arrest in human HeLa cells assessed as accumulation at G1/G0 phase at 12 uM measured after 24 hrs by flow cytometry analysis (reference value: 67.34 %). Type of assay: functional.
Assay [6] relates to HeLa. The assay can be described thus: Cell cycle arrest in human HeLa cells assessed as accumulation at S phase at 6 uM measured after 24 hrs by flow cytometry analysis (reference value: 17.44 %). Type of assay: functional.
For assay [7], the system named is HeLa. The assay can be described thus: Cell cycle arrest in human HeLa cells assessed as accumulation at G2/M phase at 6 uM measured after 24 hrs by flow cytometry analysis (reference value: 15.22 %). Format: functional.
The subject of assay [8] is HeLa. The experiment in a line: Cell cycle arrest in human HeLa cells assessed as accumulation at G1/G0 phase at 6 uM measured after 24 hrs by flow cytometry analysis (reference value: 67.34 %). Format: functional.
Assay [9] deals with HeLa. The experiment in a line: Cell cycle arrest in human HeLa cells assessed as accumulation at G2/M phase at 3 uM measured after 24 hrs by flow cytometry analysis (reference value: 15.22 %). Type of assay: functional.
In assay [10] the test system is HeLa. The experiment in a line: Cell cycle arrest in human HeLa cells assessed as accumulation at S phase at 3 uM measured after 24 hrs by flow cytometry analysis (reference value: 17.44 %). Format: functional.
The subject of assay [11] is HeLa. The assay can be described thus: Cell cycle arrest in human HeLa cells assessed as accumulation at G1/G0 phase at 3 uM measured after 24 hrs by flow cytometry analysis (reference value: 67.34 %). Type of assay: functional.

This passage reports IC50 and Activity results from ChEMBL document CHEMBL4673291, “Synthesis and antiproliferative evaluation of novel 8-cyclopentyl-7,8-dihydropteridin-6(5H)-one derivatives as potential anticancer agents” (Bioorg Med Chem Lett, 2021).

Each structure is given as a SMILES string.

On to `CN1CCN(c2ccc(Nc3ncc4c(n3)N(C3CCCC3)CC(=O)N4)cc2)CC1`, for which the IC50 in the assay with HEK293 was over 30 µM; with HT-29, 5.22 µM; in the assay with HeLa [1] it was 21.3 µM; in the assay with MDA-MB-231, 26.1 µM; with HCT-116, 12.2 µM.
The corresponding values for `CN1C(=O)CN(C2CCCC2)c2nc(Nc3ccc(N4CCCCC4)cn3)ncc21` are over 30 µM, 12.5 µM, over 30 µM, 29.3 µM and 3.89 µM.
The corresponding values for `O=C1CN(C2CCCC2)c2nc(Nc3ccc(N4CCOCC4)cc3)ncc2N1` are over 30 µM, 22.8 µM, 26 µM, 25.1 µM and 9.5 µM.
With `CCN1C(=O)CN(C2CCCC2)c2nc(Nc3ccc(N4CCCCC4)cc3)ncc21`, the half-maximal inhibitory concentration (IC50) in the assay on HEK293 is over 30 µM; with HT-29, over 30 µM; in the assay with HeLa [1], over 30 µM; with MDA-MB-231, over 30 µM; in the assay with HCT-116 it was 5.47 µM.
Turning to `CN1CCN(c2ccc(Nc3ncc4c(n3)N(C3CCCC3)CC(=O)N4C)nc2)CC1`, the IC50 in the assay on HT-29 came out at 11.1 µM; in the assay with HeLa [1], 13.1 µM; in the assay with MDA-MB-231 it was 23.7 µM; in the assay on HCT-116, 9.73 µM.
Take `CC1CCN(c2ccc(Nc3ncc4c(n3)N(C3CCCC3)CC(=O)N4)nc2)CC1`: the IC50 in the assay with HT-29, in the assay on HeLa [1], in the assay on MDA-MB-231 and in the assay with HCT-116 was over 30 µM throughout.
Consider `O=C1CN(Cc2ccccc2)c2nc(NCCc3ccccc3)ncc2N1`, for which the IC50 in the assay on HEK293 is over 30 µM; in the assay on HT-29 it was over 30 µM; in the assay on HeLa [1] it was 20.7 µM; in the assay with HCT-116, 25.4 µM.
Turning to `CN1C(=O)CN(C2CCCC2)c2nc(Nc3ccc(N4CCOCC4)cn3)ncc21`, the IC50 in the assay on HT-29 was 28.4 µM; in the assay on HeLa [1], over 30 µM; with MDA-MB-231, over 30 µM; in the assay on HCT-116 it was 23.6 µM.
Take `O=C1CN(C2CCCC2)c2nc(Nc3ccc(N4CCCCC4)cc3)ncc2N1`: the IC50 in the assay on HEK293 was 25.1 µM; with HT-29, 5.54 µM; in the assay on HeLa [1], over 30 µM; with MDA-MB-231, 25 µM; in the assay on HCT-116 it was 4.44 µM.
Consider `CCN1C(=O)CN(C2CCCC2)c2nc(Nc3ccc(N4CCN(C)CC4)cc3)ncc21`, for which the IC50 in the assay on HEK293 was over 30 µM; in the assay on HT-29, 10.3 µM; with HeLa [1] it was 28.3 µM; in the assay with MDA-MB-231, 26.2 µM; with HCT-116, 7.96 µM.
Regarding `O=C1CN(C2CCCC2)c2nc(Nc3ccc(N4CCCCC4)cn3)ncc2N1`, the half-maximal inhibitory concentration (IC50) is 21.1 µM in the assay on HT-29, over 30 µM in the assay with HeLa [1], over 30 µM in the assay with MDA-MB-231 and over 30 µM in the assay with HCT-116.
Consider `CN1C(=O)CN(C2CCCC2)c2nc(Nc3ccc(N4CCOCC4)cc3)ncc21`, for which the half-inhibitory concentration (IC50) in the assay with HT-29 is 20.1 µM; in the assay with HeLa [1], over 30 µM; with MDA-MB-231, over 30 µM; in the assay on HCT-116, over 30 µM.
Turning to `CCN1C(=O)CN(C2CCCC2)c2nc(Nc3ccc(N4CCOCC4)cc3)ncc21`, the IC50 was over 30 µM with HT-29, over 30 µM in the assay on HeLa [1], over 30 µM with MDA-MB-231 and 9.05 µM in the assay with HCT-116.
Regarding `CC1CCN(c2ccc(Nc3ncc4c(n3)N(C3CCCC3)CC(=O)N4C)nc2)CC1`, the 50% inhibitory concentration (IC50) in the assay with HT-29 is 11.3 µM; with HeLa [1], over 30 µM; with MDA-MB-231 it was over 30 µM; in the assay on HCT-116, over 30 µM.
`CC1CCN(c2ccc(Nc3ncc4c(n3)N(C3CCCC3)CC(=O)N4C)cc2)CC1`: the IC50 was over 30 µM in the assay with HT-29, over 30 µM in the assay on HeLa [1], over 30 µM with MDA-MB-231 and 25.3 µM with HCT-116.
As for `CCN1C(=O)CN(C2CCCC2)c2nc(Nc3ccc(N4CCN(C)CC4)cn3)ncc21`, the IC50 was over 30 µM in the assay on HEK293; 7.84 µM with HT-29; 29.1 µM in the assay with HeLa [1]; 24.1 µM in the assay on MDA-MB-231; 16.4 µM in the assay on HCT-116.
Take `CN1CCN(c2ccc(Nc3ncc4c(n3)N(C3CCCC3)CC(=O)N4)nc2)CC1`: the IC50 in the assay with HT-29 is 26.5 µM; in the assay with HeLa [1], over 30 µM; in the assay with MDA-MB-231 it was over 30 µM; in the assay on HCT-116 it was over 30 µM.
As to `O=C1CN(C2CCCC2)c2nc(Nc3ccc(N4CCOCC4)cn3)ncc2N1`, the concentration for half-maximal inhibition (IC50) in the assay on HT-29 is 22 µM; in the assay on HeLa [1], over 30 µM; with MDA-MB-231, over 30 µM; with HCT-116, 25.3 µM.
On to `O=C1CN(C2CCCC2)c2nc(Nc3ccc(N4CCNCC4)cn3)ncc2N1`, for which the concentration for half-maximal inhibition (IC50) in the assay on HT-29, with HeLa [1], in the assay with MDA-MB-231 and in the assay on HCT-116 was over 30 µM in each case.
Take `CCN1C(=O)CN(C2CCCC2)c2nc(Nc3ccc(N4CCCCC4)cn3)ncc21`: the IC50 was over 30 µM in the assay with HEK293; 22 µM in the assay on HT-29; 17.6 µM in the assay on HeLa [1]; 28.2 µM with MDA-MB-231; 14.5 µM with HCT-116.
As for `COc1ccc(Nc2ncc3c(n2)N(C2CCCC2)CC(=O)N3)cc1`, the IC50 in the assay with MDA-MB-231 and in the assay on HCT-116 was over 30 µM throughout.
With `CN1CCN(c2ccc(Nc3ncc4c(n3)N(C3CCCC3)CC(=O)N4C)cc2)CC1`, the Activity in the assay with HeLa [2] was 88.97%; with HeLa [3], “Dose-dependent effect”; in the assay on HeLa [4] it was 0%; in the assay on HeLa [5], 11.03%; in the assay with HeLa [6], 3.9%; in the assay with HeLa [7], 48.98%. Moreover, the Activity with HeLa [8] amounted to 47.11%; with HeLa [9], 20.97%; in the assay with HeLa [10], 14.6%; in the assay on HeLa [11] it was 64.43%. Besides, the IC50 stood at 12.4 µM in the assay with HEK293; 7.56 µM in the assay on HT-29; 6.75 µM with HeLa [1]; 10.3 µM with MDA-MB-231; 3.29 µM with HCT-116.
Take `CC1CCN(c2ccc(Nc3ncc4c(n3)N(C3CCCC3)CC(=O)N4)cc2)CC1`: the half-maximal inhibitory concentration (IC50) was 5.04 µM in the assay with HT-29, over 30 µM in the assay with HeLa [1], 22.7 µM in the assay with MDA-MB-231 and 8.43 µM in the assay with HCT-116.
Regarding `CCN1C(=O)CN(C2CCCC2)c2nc(Nc3ccc(N4CCC(C)CC4)cc3)ncc21`, the IC50 was over 30 µM in the assay with HEK293; 24.4 µM in the assay on HT-29; over 30 µM in the assay on HeLa [1]; over 30 µM in the assay with MDA-MB-231; 5.4 µM with HCT-116.
Take `COc1ccc(Nc2ncc3c(n2)N(C2CCCC2)CC(=O)N3C)cc1`: the IC50 is over 30 µM with MDA-MB-231 and 12.3 µM with HCT-116.
As to `CN1C(=O)CN(C2CCCC2)c2nc(Nc3ccc(N4CCCCC4)cc3)ncc21`, the IC50 in the assay with HEK293 stood at 25.3 µM; in the assay with HT-29 it was 9.86 µM; with HeLa [1], 16.9 µM; in the assay on MDA-MB-231, 21.2 µM; in the assay on HCT-116, 6.1 µM.
With `CCN1C(=O)CN(C2CCCC2)c2nc(Nc3ccc(OC)cc3)ncc21`, the IC50 was over 30 µM in the assay with MDA-MB-231 and 11 µM in the assay on HCT-116.
With `CC(=O)c1c(C)c2cnc(Nc3ccc(N4CCNCC4)cn3)nc2n(C2CCCC2)c1=O` [PALBOCICLIB], the 50% inhibitory concentration (IC50) in the assay with HT-29 stood at 3.56 µM; with HeLa [1], 13.3 µM; in the assay on MDA-MB-231, 6.21 µM; with HCT-116 it was 7.11 µM.
The corresponding values for `CCN1C(=O)CN(C2CCCC2)c2nc(Nc3ccc(N4CCC(C)CC4)cn3)ncc21` are over 30 µM, over 30 µM, over 30 µM and 19.1 µM.
The corresponding values for `CCN1C(=O)CN(C2CCCC2)c2nc(Nc3ccc(N4CCOCC4)cn3)ncc21` are 27.6 µM, over 30 µM, over 30 µM and over 30 µM.
